Results published in patent publication US6586183B2, “Association of β2-adrenergic receptor haplotypes with drug response” (Genaissance Pharmaceuticals, Inc., priority 2000, dated 2003).

Test system: asthma patients
Experiment: Bronchodilator response (spirometry, FEV1) of asthma patients to inhaled albuterol, by β2AR haplotype pair
Format: in vivo, human
Experimental: The patients in the asthma cohort were enrolled from an outpatient facility as described in detail elsewhere (Yan, L., Galinsky, R. E., Bernstein, J. A., Liggett, S. B. & Weinshilboum, R. M. (1999) Pharmacogenetics in Press). […] Forced expiratory volume in 1 second (FEV1) and forced vital capacity (FVC) were determined in triplicate. The predicted values for these measurements were calculated based on standard algorithms (Morris, J. F., Koski, A. & Johnson, L. C. (1971) Am Rev Respir Dis 103, 57-67).
The association between changes in % predicted FEV1 and haplotype pair was assessed by fitting an analysis of covariance model (ANCOVA) with terms for haplotype pair, sex and baseline severity. P-values from pairwise comparisons by haplotype pair were adjusted for multiple comparisons by applying the Holm-Sidak step-down procedure (Ludbrook, J. (1998) Clin and Exp Pharmacology & Physiology 25, 1032-1037.). […] In addition, the African-American asthma patients were excluded from the analysis due to the low number of individuals in this population group. For the analysis of individual SNPs, a similar ANCOVA model was employed with a discrete term for SNP genotype, and terms for sex and baseline severity. The Holm-Sidak step-down procedure was used to adjust the p-values from the individual SNP analyses for the number of tests performed.
Pairwise tests were made while correcting for multiple comparisons. […] For this analysis, a similar ANCOVA model as above was utilized. […] Since 0, 1 or 2 copies of these two haplotypes are present in our population as haplotype pairs 2/2, 2/4 and 4/4, a potential gene dose effect can be assessed by regression analysis.

## CC(C)(C)NCC(O)c1ccc(O)c(CO)c1 (stereo not drawn) [albuterol]
Asthmatic patients with haplotype pair 2/6
  bronchodilator response to albuterol: moderate bronchodilator response
Asthmatic patients with haplotype pairs 2/2 and 4/6
  bronchodilator response to albuterol: respond well
Asthmatic patients with haplotype pairs 2/4 and 4/4
  bronchodilator response to albuterol: little to no response
